According to US11725000B2, “Apoptosis inhibitors” (National Institute of Biological Sciences, Beijing, priority 2017, dated 2023):

These molecules were tested on U2OS_Bim cells (assay: Apoptosis inhibition assay (Bim-induced apoptosis, cell viability by ATP level)). Details: U2OS_Bim cells, DOX-induced Bim overexpression, viability 24 h after DOX; read-out: EC50.
Assay type: cell-based
Procedure, shortened: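 Apoptosis was triggered by doxycycline (0.1 μg/mL) induction of Bim, one hour after compound addition to U2OS_Bim cells. Survival was measured after 24 h from cellular ATP (CellTiter-Glo), relative to DMSO, with zVAD at 20 μM as rescue control. Data are duplicate means, some estimated from preliminary results.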

EC50 | Compound
0.00042 µM | COc1ccc(Cn2cc(-c3cc(C(F)(F)F)nc(S(=O)(=O)CCCC(=O)NC45CC6CC(CC(C6)C4)C5)n3)ccc2=O)cc1OC [Compound 289]

Same assay, conditions: U2OS_Bim cells; estimated (*Est.) / preliminary results; numbering of Tables 4a/4b; read-out: EC50

EC50 | Compound
0.001 to 1 µM | COc1ccc(Cn2cc(-c3cc(C(F)F)nc(S(=O)(=O)CCCOCc4ccccc4)n3)ccc2=O)cc1OC [Compound 272, 5-(2-((3-(benzyloxy)propyl)sulfonyl)-6-(difluoromethyl)pyrimidin-4-yl)-1-(3,4-dimethoxybenzyl)pyridin-2 (1H)-one]

Same assay, conditions: U2OS_Bim cells; estimated based on preliminary results; numbering of Tables 4a/4b; read-out: EC50

EC50 | Compound
< 10 µM | COc1ccc(Cn2cc(-c3cc(C(=O)c4ccccc4)nc(S(C)(=O)=O)n3)ccc2=O)cc1OC [Compound 271, 5-(6-benzoyl-2-(methylsulfonyl)pyrimidin-4-yl)-1-(3,4-dimethoxybenzyl)pyridin-2 (1H)-one]
1 to 10 µM | COc1ccc(Cn2cc(-c3cc(C(F)F)nc(S(=O)(=O)CCCO)n3)ccc2=O)cc1OC [Compound 273, 5-(6-(difluoromethyl)-2-((3-hydroxypropyl)sulfonyl)pyrimidin-4-yl)-1-(3,4-dimethoxybenzyl)pyridin-2 (1H)-one]
< 100 µM | COc1ccc(OC2CCCN(c3cc(C(F)(F)F)nc(S(C)(=O)=O)n3)C2)cc1OC (stereo not shown) [Compound 274, 4-(3-(3,4-dimethoxyphenoxy)piperidin-1-yl)-2-(methylsulfonyl)-6-(trifluoromethyl)pyrimidine]

Same assay, conditions: U2OS_Bim cells; means of duplicates; numbering of Tables 4a/4b; read-out: EC50

Compound | EC50
COc1ccc(Cn2cc(-c3cc(=O)n(C)c(S(C)(=O)=O)n3)ccc2=O)cc1OC [Compound 275, 6-(1-(3,4-dimethoxybenzyl)-6-oxo-1,6-dihydropyridin-3-yl)-3-methyl-2-(methylsulfonyl)pyrimidin-4 (3H)-one] | < 100 µM
COc1ccc(Cn2cc(-c3cc(C(F)(F)F)nc(S(=O)(=O)CCCCO)n3)ccc2=O)cc1OC [Compound 276, 1-(3,4-dimethoxybenzyl)-5-(2-((4-hydroxybutyl)sulfonyl)-6-(trifluoromethyl)pyrimidin-4-yl)pyridin-2 (1H)-one] | 0.001 to 1 µM
COc1ccc(Cn2cc(-c3cc(C(F)F)nc(S(=O)(=O)CCC(OCc4ccccc4)c4ccccc4)n3)ccc2=O)cc1OC (stereo not shown) [Compound 278, 5-(2-((3-(benzyloxy)-3-phenylpropyl)sulfonyl)-6-(difluoromethyl)pyrimidin-4-yl)-1-(3,4-dimethoxybenzyl)pyridin-2 (1H)-one] | 0.001 to 1 µM
COc1ccc(Cn2cc(-c3cc(C(F)(F)F)nc([S+]([O-])CCC(OCc4ccccc4)c4ccccc4)n3)ccc2=O)cc1OC (stereo not shown) [Compound 280, 5-(2-((3-(benzyloxy)-3-phenylpropyl)sulfinyl)-6-(trifluoromethyl)pyrimidin-4-yl)-1-(3,4-dimethoxybenzyl)pyridin-2 (1H)-one] | 0.001 to 1 µM
COc1ccc(Cn2cc(-c3cc(C(F)(F)F)nc(S(=O)(=O)CCC(OCc4ccccc4)c4ccccc4)n3)ccc2=O)cc1OC (stereo not shown) [Compound 281, 5-(2-((3-(benzyloxy)-3-phenylpropyl)sulfonyl)-6-(trifluoromethyl)pyrimidin-4-yl)-1-(3,4-dimethoxybenzyl)pyridin-2 (1H)-one] | 0.001 to 1 µM
COc1ccc(Cn2cc(-c3cc(CF)nc(S(=O)(=O)CCC(OCc4ccccc4)c4ccccc4)n3)ccc2=O)cc1OC (stereo not shown) [Compound 282, 5-(2-((3-(benzyloxy)-3-phenylpropyl)sulfonyl)-6-(fluoromethyl)pyrimidin-4-yl)-1-(3,4-dimethoxybenzyl)pyridin-2 (1H)-one] | 0.001 to 1 µM
COc1ccc(Cn2cc(-c3cc(C(F)F)nc([S+]([O-])CCC(OCc4ccccc4F)c4ccccc4)n3)ccc2=O)cc1F (stereo not shown) [Compound 283, 5-(6-(difluoromethyl)-2-(3-(2-fluorobenzyloxy)-3-phenylpropylsulfinyl)pyrimidin-4-yl)-1-(3-fluoro-4-methoxybenzyl)pyridin-2 (1H)-one] | 0.001 to 1 µM
COc1ccc(Cn2cc(-c3cc(C(F)F)nc(S(=O)(=O)CCC(OCc4ccccc4F)c4ccccc4)n3)ccc2=O)cc1F (stereo not shown) [Compound 284, 5-(6-(difluoromethyl)-2-(3-(2-fluorobenzyloxy)-3-phenylpropylsulfonyl)pyrimidin-4-yl)-1-(3-fluoro-4-methoxybenzyl)pyridin-2 (1H)-one] | 0.001 to 1 µM
COc1ccc(Cn2cc(-c3cc(C(F)F)nc(S(=O)(=O)CCC(OCc4ccc(F)cc4F)c4ccccc4)n3)ccc2=O)cc1F (stereo not shown) [Compound 286, 5-(2-(3-(2,4-difluorobenzyloxy)-3-phenylpropylsulfonyl)-6-(difluoromethyl)pyrimidin-4-yl)-1-(3-fluoro-4-methoxybenzyl)pyridin-2 (1H)-one] | 0.001 to 1 µM
COc1ccc(Cn2cc(-c3cc(C(F)F)nc(S(=O)(=O)CCC(O)c4ccccc4)n3)ccc2=O)cc1F (stereo not shown) [Compound 287, 5-(6-(difluoromethyl)-2-((3-hydroxy-3-phenylpropyl)sulfonyl)pyrimidin-4-yl)-1-(3-fluoro-4-methoxybenzyl)pyridin-2 (1H)-one] | 0.001 to 1 µM
COc1ccc(Cn2cc(-c3cc(C(F)F)nc(S(=O)(=O)CCCC(=O)NC45CC6CC(CC(C6)C4)C5)n3)ccc2=O)cc1OC [Compound 288, N-((3s,5s,7s)-adamantan-1-yl)-4-((4-(difluoromethyl)-6-(1-(3,4-dimethoxybenzyl)-6-oxo-1,6-dihydropyridin-3-yl)pyrimidin-2-yl)sulfonyl)butanamide] | 0.001 to 1 µM
[O-][S+](CCC(OCc1ccccc1)c1ccccc1)c1nc(-c2cccs2)cc(C(F)(F)F)n1 (stereo not shown) [Compound 290, 2-(3-(benzyloxy)-3-phenylpropylsulfinyl)-4-(thiophen-2-yl)-6-(trifluoromethyl)pyrimidine] | 1 to 10 µM
O=S(=O)(CCC(OCc1ccccc1)c1ccccc1)c1nc(-c2cccs2)cc(C(F)(F)F)n1 (stereo not shown) [Compound 291, 2-(3-(benzyloxy)-3-phenylpropylsulfonyl)-4-(thiophen-2-yl)-6-(trifluoromethyl)pyrimidine] | 1 to 10 µM
COc1ccc(Cn2cc(-c3nc(S(=O)(=O)CCC(OCc4ccccc4)c4ccccc4)nc4ccccc34)ccc2=O)cc1OC (stereo not shown) [Compound 293, 5-(2-((3-(benzyloxy)-3-phenylpropyl)sulfonyl)quinazolin-4-yl)-1-(3,4-dimethoxybenzyl)pyridin-2 (1H)-one] | 0.001 to 1 µM
COc1ccc(Cn2cc(-c3cc(C)nc(S(=O)(=O)CCC(OCc4ccccc4)c4ccccc4)n3)ccc2=O)cc1OC (stereo not shown) [Compound 295, 5-(2-(3-(benzyloxy)-3-phenylpropylsulfonyl)-6-methylpyrimidin-4-yl)-1-(3,4-dimethoxybenzyl)pyridin-2 (1H)-one] | 0.001 to 1 µM
COc1ccc(Cn2cc(-c3cc(-c4ccccc4F)nc(S(C)(=O)=O)n3)ccc2=O)cc1OC [Compound 296, 1-(3,4-dimethoxybenzyl)-5-(6-(2-fluorophenyl)-2-(methylsulfonyl)pyrimidin-4-yl)pyridin-2 (1H)-one] | 1 to 10 µM
COc1ccc(Cn2cc(-c3cc(-c4cccs4)nc(S(=O)(=O)CCC(OCc4ccccc4)c4ccccc4)n3)ccc2=O)cc1OC (stereo not shown) [Compound 300, 5-(2-((3-(benzyloxy)-3-phenylpropyl)sulfonyl)-6-(thiophen-2-yl)pyrimidin-4-yl)-1-(3,4-dimethoxybenzyl)pyridin-2 (1H)-one] | 0.001 to 1 µM

Next, values leading:

EC50 | Compound
0.001 to 1 µM | COc1ccc(Cn2cc(-c3cc(C(F)F)nc([S+]([O-])CCC(OCc4ccccc4)c4ccccc4)n3)ccc2=O)cc1OC (stereo not shown) [Compound 277, 5-(2-((3-(benzyloxy)-3-phenylpropyl)sulfinyl)-6-(difluoromethyl)pyrimidin-4-yl)-1-(3,4-dimethoxybenzyl)pyridin-2 (1H)-one]
0.001 to 1 µM | COc1ccc(Cn2cc(-c3cc(C(F)F)nc(S(=O)(=O)CCC(Cl)c4ccccc4)n3)ccc2=O)cc1OC (stereo not shown) [Compound 279, 5-(2-((3-chloro-3-phenylpropyl)sulfonyl)-6-(difluoromethyl)pyrimidin-4-yl)-1-(3,4-dimethoxybenzyl)pyridin-2 (1H)-one]
0.001 to 1 µM | COc1ccc(Cn2cc(-c3cc(C(F)(F)F)nc(S(=O)(=O)CCCC(=O)NC45CC6CC(CC(C6)C4)C5)n3)ccc2=O)cc1OC [Compound 289]
1 to 10 µM | O=S(=O)(CCC(Cl)c1ccccc1)c1nc(-c2cccs2)cc(C(F)(F)F)n1 (stereo not shown) [Compound 292, 2-((3-chloro-3-phenylpropyl)sulfonyl)-4-(thiophen-2-yl)-6-(trifluoromethyl)pyrimidine]
0.001 to 1 µM | COc1ccc(Cn2cc(-c3cc(C)nc([S+]([O-])CCC(OCc4ccccc4)c4ccccc4)n3)ccc2=O)cc1OC (stereo not shown) [Compound 294, 5-(2-(3-(benzyloxy)-3-phenylpropylsulfinyl)-6-methylpyrimidin-4-yl)-1-(3,4-dimethoxybenzyl)pyridin-2 (1H)-one]
< 100 µM | COc1ccc(Cn2cc(-c3cc(-c4ccccc4F)nc([S+]([O-])CCC(OCc4ccccc4)c4ccccc4)n3)ccc2=O)cc1OC (stereo not shown) [Compound 297, 5-(2-((3-(benzyloxy)-3-phenylpropyl)sulfinyl)-6-(2-fluorophenyl)pyrimidin-4-yl)-1-(3,4-dimethoxybenzyl)pyridin-2 (1H)-one]
< 100 µM | COc1ccc(Cn2cc(-c3cc(-c4ccccc4F)nc(S(=O)(=O)CCC(OCc4ccccc4)c4ccccc4)n3)ccc2=O)cc1OC (stereo not shown) [Compound 298, 5-(2-((3-(benzyloxy)-3-phenylpropyl)sulfonyl)-6-(2-fluorophenyl)pyrimidin-4-yl)-1-(3,4-dimethoxybenzyl)pyridin-2 (1H)-one]
< 100 µM | COc1ccc(Cn2cc(-c3cc(-c4cccs4)nc([S+]([O-])CCC(OCc4ccccc4)c4ccccc4)n3)ccc2=O)cc1OC (stereo not shown) [Compound 299, 5-(2-((3-(benzyloxy)-3-phenylpropyl)sulfinyl)-6-(thiophen-2-yl)pyrimidin-4-yl)-1-(3,4-dimethoxybenzyl)pyridin-2 (1H)-one]
1 to 10 µM | COc1ccc(Cn2cc(-c3nc([S+]([O-])CCC(OCc4ccccc4F)c4ccccc4)nc4sccc34)cc(F)c2=O)cc1F (stereo not shown) [Compound 301, 3-fluoro-1-(3-fluoro-4-methoxybenzyl)-5-(2-(3-(2-fluorobenzyloxy)-3-phenylpropylsulfinyl)thieno[2,3-d]pyrimidin-4-yl)pyridin-2 (1H)-one]
